The values below come from US11421145B2, “Oil recovery methods using a formulation containing an unsaturated zwitterionic surfactant and a polymer” (King Fahd University of Petroleum and Minerals, priority 2019, dated 2022).

A short description of the data set: Solubility and compatibility in seawater (SW) and formation water (FW). The conditions noted are these: seawater and formation water. Type of data set: physicochemical. As for the experimental part:
Synthetic seawater (SW) and formation water (FW) were prepared using NaCl, Na2SO4, NaHCO3, CaCl2, and MgCl2. All the salts were obtained from Sigma-Aldrich, USA.
Solubility and compatibility of the surfactant in the reservoir and injection brine are the primary considerations for further evaluation of the unsaturated surfactant for EOR application. If the surfactant is not soluble in the seawater and formation brine, it can be rejected at the initial stage. […] After the compatibility test with SW and FW, the short-term thermal stability of the synthesized unsaturated surfactant was evaluated using TGA analysis. […] Only 3% weight loss was observed up to 200° C., which was mainly associated with solvent and water evaporation. […] TGA results helped to identify and eliminate the surfactants that had lower decomposition temperatures. However, for real field applications, long-term thermal stability of the surfactant must be considered, as the surfactant residence time in the reservoir could vary from a few days to a few months.

Consider `CCCCCCCCCCCCCCCCCC(=O)NCCC[N+](C)(C)CCCS(=O)(=O)[O-]` [3-(N-stearamidopropyl-N,N-dimethylammonium)propanesulfonate, reference compound], for which the “solubility in SW and FW” value was “poor solubility”.
